The results in this text go back to PubChem BioAssay AID2060332 (Molecular Pharmacology Branch, DTP, NCI, 2025).

The test has as its system LG0567-F671-PDC multi-cell spheroid viability. Kind of test: Anticancer human tumor LG0567-F671-PDC patient-derived lung adenocarcinoma cell line growth inhibition [IpAb]. As to conditions: for viability, T/C: stronger effect = lower value. An outline of the steps:
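Combinations with ipatasertib or abemaciclib were tested on tumour spheroids holding HUVEC (25%) and MSC (15%) alongside 60% malignant cells. Top concentration was at or near clinical Cmax (10 microM if undefined), descending in half-log steps.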

Setting [1] is: curve of first compound, second compound 0.1 µM.
The mark [2] stands for this setting: curve of first compound, second compound 0.316 µM.
The mark [3] stands for this setting: curve of first compound, second compound 1 µM.

Where “and” joins values, the source holds several entries; their conditions need not be identical. Equal entries are not always repeated.
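Note: viability read after 7 days of drug exposure.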
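Throughout, for viability, T/C: 100% = DMSO vehicle control luminescence.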

The IC50 is the concentration that inhibits the measured activity by half. In general, viability, T/C refers to the result in the treated group divided by that in the control group, in per cent. As for `Cn1ncnc1[C@H]1c2n[nH]c(=O)c3cc(F)cc(c23)N[C@@H]1c1ccc(F)cc1` + CCN1CCN(Cc2ccc(Nc3ncc(F)c(-c4cc(F)c5nc(C)n(C(C)C)c5c4)n3)nc2)CC1, the IC50 runs as follows: (curve of first compound, second compound 0.01 µM) 0.0717 µM; (curve of first compound, second compound 0.0316 µM) 0.0182 µM; under setting [1], 0.0112 µM; under setting [2], 0.022 µM; under setting [3], 0.00545 µM. For the same compound, the viability, T/C (second compound 0.01 µM, first compound 0.000316 µM) is 94.2%; the viability, T/C (second compound 0.01 µM, first compound 0.001 µM) was 89.6%; the viability, T/C (second compound 0.01 µM, first compound 0.00316 µM) is 64.2%; the viability, T/C (second compound 0.01 µM, first compound 0.01 µM) was 76.7%; the viability, T/C (second compound 0.01 µM, first compound 0.0316 µM) is 64.9%; the viability, T/C (second compound 0.01 µM, first compound 0.1 µM) is 40.9%. Besides, the viability, T/C by setting is: (second compound 0.0316 µM, first compound 0.000316 µM) 64%; (second compound 0.0316 µM, first compound 0.001 µM) 81.5%; (second compound 0.0316 µM, first compound 0.00316 µM) 69.3%; (second compound 0.0316 µM, first compound 0.01 µM) 46.1%; (second compound 0.0316 µM, first compound 0.0316 µM) 49.8%; (second compound 0.0316 µM, first compound 0.1 µM) 24.7%. The viability, T/C is, setting by setting: (second compound 0.1 µM, first compound 0.000316 µM) 63.2%; (second compound 0.1 µM, first compound 0.001 µM) 75.8%; (second compound 0.1 µM, first compound 0.00316 µM) 63.1%; (second compound 0.1 µM, first compound 0.01 µM) 52.8%; (second compound 0.1 µM, first compound 0.0316 µM) 29.8%; (second compound 0.1 µM, first compound 0.1 µM) 30.4%. The viability, T/C reads like this: (second compound 0.316 µM, first compound 0.000316 µM) 63.5%; (second compound 0.316 µM, first compound 0.001 µM) 72.2%; (second compound 0.316 µM, first compound 0.00316 µM) 66.5%; (second compound 0.316 µM, first compound 0.01 µM) 52.1%; (second compound 0.316 µM, first compound 0.0316 µM) 49.2%; (second compound 0.316 µM, first compound 0.1 µM) 30%. The viability, T/C is 61.9% (second compound 1 µM, first compound 0.000316 µM); 67.4% (second compound 1 µM, first compound 0.001 µM); 56.1% (second compound 1 µM, first compound 0.00316 µM); 43.3% (second compound 1 µM, first compound 0.01 µM); 32.8% (second compound 1 µM, first compound 0.0316 µM); 40.3% (second compound 1 µM, first compound 0.1 µM).
For the compound `Cn1cnc2c(F)c(Nc3ccc(Br)cc3Cl)c(C(=O)NOCCO)cc21` + CC(C)NCC(C(=O)N1CCN(c2ncnc3c2C(C)CC3O)CC1)c1ccc(Cl)cc1, the IC50 under setting [1] amounted to 0.0157 µM; the half-maximal inhibitory concentration (IC50) under setting [2] was < 0.00949 µM; the IC50 under setting [3] was < 0.00949 µM; the IC50 (curve of first compound, second compound 3.16 µM) is < 0.00949 µM; the IC50 (curve of first compound, second compound 10 µM) was < 0.00949 µM. Also, the viability, T/C (second compound 0.1 µM, first compound 0.00949 µM) is 59.6%; the viability, T/C (second compound 0.1 µM, first compound 0.03 µM) is 36.4%; the viability, T/C (second compound 0.1 µM, first compound 0.0949 µM) is 29.3%; the viability, T/C (second compound 0.1 µM, first compound 0.3 µM) is 18.2%; the viability, T/C (second compound 0.1 µM, first compound 0.949 µM) was 18.6%; the viability, T/C (second compound 0.1 µM, first compound 3 µM) is 11.1%. Besides, the viability, T/C runs as follows: (second compound 0.316 µM, first compound 0.00949 µM) 43.4%; (second compound 0.316 µM, first compound 0.03 µM) 32.4%; (second compound 0.316 µM, first compound 0.0949 µM) 23.2%; (second compound 0.316 µM, first compound 0.3 µM) 18%; (second compound 0.316 µM, first compound 0.949 µM) 14.3%; (second compound 0.316 µM, first compound 3 µM) 5.52%. Besides, the viability, T/C runs as follows: (second compound 1 µM, first compound 0.00949 µM) 34.6%; (second compound 1 µM, first compound 0.03 µM) 32.3%; (second compound 1 µM, first compound 0.0949 µM) 23.9%; (second compound 1 µM, first compound 0.3 µM) 21.3%; (second compound 1 µM, first compound 0.949 µM) 10.7%; (second compound 1 µM, first compound 3 µM) 8.24%. In addition, the viability, T/C runs as follows: (second compound 3.16 µM, first compound 0.00949 µM) 44.9%; (second compound 3.16 µM, first compound 0.03 µM) 43.4%; (second compound 3.16 µM, first compound 0.0949 µM) 36.4%; (second compound 3.16 µM, first compound 0.3 µM) 16.4%; (second compound 3.16 µM, first compound 0.949 µM) 14.8%; (second compound 3.16 µM, first compound 3 µM) 7.66%. The viability, T/C (second compound 10 µM, first compound 0.00949 µM) is 43.4%; the viability, T/C (second compound 10 µM, first compound 0.03 µM) was 28.7%; the viability, T/C (second compound 10 µM, first compound 0.0949 µM) was 26.7%; the viability, T/C (second compound 10 µM, first compound 0.3 µM) is 21.5%; the viability, T/C (second compound 10 µM, first compound 0.949 µM) was 11.9%; the viability, T/C (second compound 10 µM, first compound 3 µM) is 8.12%.
On to `Cn1nccc1Nc1nccc(-c2ccn(C(CO)c3ccc(Cl)c(F)c3)c(=O)c2)n1` (stereo not drawn), for which the viability, T/C is, setting by setting: (compound 0.0316 µM) 96.4% and 76.2%; (compound 0.1 µM) 50.8% and 58.4%; (compound 0.316 µM) 45% and 40.1%; (compound 1 µM) 41.1% and 29.3%; (compound 3.16 µM) 33.5% and 35.7%; (compound 10 µM) 36.3% and 34.5%. Also, the IC50 (curve of compound) is 0.138 µM and 0.166 µM.
`COc1c(OCCCN2CCOCC2)ccc2c3n(c(=NC(=O)c4cnc(N)nc4)nc12)CCN3`: the viability, T/C is, setting by setting: (compound 0.00316 µM) 102%; (compound 0.01 µM) 75.8% and 88.7%; (compound 0.0316 µM) 59.6% and 64.5%; (compound 0.1 µM) 48.8% and 42.4%; (compound 0.316 µM) 35.9% and 36.7%; (compound 1 µM) 33.4% and 31.1%. For the same compound, the IC50 (curve of compound) was 0.075 µM and 0.0696 µM.
Consider `Cn1cnc2c(F)c(Nc3ccc(Br)cc3Cl)c(C(=O)NOCCO)cc21`, for which the viability, T/C by setting is: (compound 0.00949 µM) 54.7% and 48.5%; (compound 0.03 µM) 33% and 42.6%; (compound 0.0949 µM) 27.1% and 34.2%; (compound 0.3 µM) 25.2% and 24.2%; (compound 0.949 µM) 18.1% and 21.6%; (compound 3 µM) 16.5% and 16%. Also, the IC50 (curve of compound) is 0.0119 µM and < 0.00949 µM.
As to `Cn1ncc(Cl)c1-c1cc(C(=O)NC(CN)Cc2cccc(F)c2)sc1Cl` (stereo not drawn), the viability, T/C (compound 0.0316 µM) was 111% and 97.3%; the viability, T/C (compound 0.1 µM) is 93% and 66%; the viability, T/C (compound 0.316 µM) is 52.6% and 62.1%; the viability, T/C (compound 1 µM) is 82.9% and 63%; the viability, T/C (compound 3.16 µM) was 53% and 45.6%; the viability, T/C (compound 10 µM) was 0.27% and 0.21%. In addition, the IC50 (curve of compound) was 2.47 µM and 1.66 µM.
